Assay results from US9273040B2 (Merck Sharp & Dohme Corp., priority 2011, dated 2016).

Assays:
[1] = biological target: T1, human Nav1.5 channels stably expressed in HEK 293 cells (Homo sapiens, UniProt Q14524); assay: PatchXpress 7000 automated patch-clamp, sodium current; type: cell-based; conditions: selectivity over Nav1.5
T1 construct: expressed in transfected cells
In short: (§1)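 IC50 values came from Hill-equation fits of rundown-corrected inhibition. PatchXpress recordings at 22° C held cells 20 mV negative to V0.5 inact and applied 10 Hz trains of 30 ms steps to −20 mV (Nav1.7) or an 8000 ms prepulse 7 mV positive to V0.5 inact. […]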

[2] = biological target: T2, human Nav1.7 channels stably expressed in HEK 293 cells (Homo sapiens, UniProt Q15858); assay: as above; type: cell-based; conditions: 22° C., read-out: potency for the Nav 1.7 sodium ion channel (as measured by PatchXpress)
T2 construct: expressed in transfected cells
T2 sequence (Q15858 whole entry): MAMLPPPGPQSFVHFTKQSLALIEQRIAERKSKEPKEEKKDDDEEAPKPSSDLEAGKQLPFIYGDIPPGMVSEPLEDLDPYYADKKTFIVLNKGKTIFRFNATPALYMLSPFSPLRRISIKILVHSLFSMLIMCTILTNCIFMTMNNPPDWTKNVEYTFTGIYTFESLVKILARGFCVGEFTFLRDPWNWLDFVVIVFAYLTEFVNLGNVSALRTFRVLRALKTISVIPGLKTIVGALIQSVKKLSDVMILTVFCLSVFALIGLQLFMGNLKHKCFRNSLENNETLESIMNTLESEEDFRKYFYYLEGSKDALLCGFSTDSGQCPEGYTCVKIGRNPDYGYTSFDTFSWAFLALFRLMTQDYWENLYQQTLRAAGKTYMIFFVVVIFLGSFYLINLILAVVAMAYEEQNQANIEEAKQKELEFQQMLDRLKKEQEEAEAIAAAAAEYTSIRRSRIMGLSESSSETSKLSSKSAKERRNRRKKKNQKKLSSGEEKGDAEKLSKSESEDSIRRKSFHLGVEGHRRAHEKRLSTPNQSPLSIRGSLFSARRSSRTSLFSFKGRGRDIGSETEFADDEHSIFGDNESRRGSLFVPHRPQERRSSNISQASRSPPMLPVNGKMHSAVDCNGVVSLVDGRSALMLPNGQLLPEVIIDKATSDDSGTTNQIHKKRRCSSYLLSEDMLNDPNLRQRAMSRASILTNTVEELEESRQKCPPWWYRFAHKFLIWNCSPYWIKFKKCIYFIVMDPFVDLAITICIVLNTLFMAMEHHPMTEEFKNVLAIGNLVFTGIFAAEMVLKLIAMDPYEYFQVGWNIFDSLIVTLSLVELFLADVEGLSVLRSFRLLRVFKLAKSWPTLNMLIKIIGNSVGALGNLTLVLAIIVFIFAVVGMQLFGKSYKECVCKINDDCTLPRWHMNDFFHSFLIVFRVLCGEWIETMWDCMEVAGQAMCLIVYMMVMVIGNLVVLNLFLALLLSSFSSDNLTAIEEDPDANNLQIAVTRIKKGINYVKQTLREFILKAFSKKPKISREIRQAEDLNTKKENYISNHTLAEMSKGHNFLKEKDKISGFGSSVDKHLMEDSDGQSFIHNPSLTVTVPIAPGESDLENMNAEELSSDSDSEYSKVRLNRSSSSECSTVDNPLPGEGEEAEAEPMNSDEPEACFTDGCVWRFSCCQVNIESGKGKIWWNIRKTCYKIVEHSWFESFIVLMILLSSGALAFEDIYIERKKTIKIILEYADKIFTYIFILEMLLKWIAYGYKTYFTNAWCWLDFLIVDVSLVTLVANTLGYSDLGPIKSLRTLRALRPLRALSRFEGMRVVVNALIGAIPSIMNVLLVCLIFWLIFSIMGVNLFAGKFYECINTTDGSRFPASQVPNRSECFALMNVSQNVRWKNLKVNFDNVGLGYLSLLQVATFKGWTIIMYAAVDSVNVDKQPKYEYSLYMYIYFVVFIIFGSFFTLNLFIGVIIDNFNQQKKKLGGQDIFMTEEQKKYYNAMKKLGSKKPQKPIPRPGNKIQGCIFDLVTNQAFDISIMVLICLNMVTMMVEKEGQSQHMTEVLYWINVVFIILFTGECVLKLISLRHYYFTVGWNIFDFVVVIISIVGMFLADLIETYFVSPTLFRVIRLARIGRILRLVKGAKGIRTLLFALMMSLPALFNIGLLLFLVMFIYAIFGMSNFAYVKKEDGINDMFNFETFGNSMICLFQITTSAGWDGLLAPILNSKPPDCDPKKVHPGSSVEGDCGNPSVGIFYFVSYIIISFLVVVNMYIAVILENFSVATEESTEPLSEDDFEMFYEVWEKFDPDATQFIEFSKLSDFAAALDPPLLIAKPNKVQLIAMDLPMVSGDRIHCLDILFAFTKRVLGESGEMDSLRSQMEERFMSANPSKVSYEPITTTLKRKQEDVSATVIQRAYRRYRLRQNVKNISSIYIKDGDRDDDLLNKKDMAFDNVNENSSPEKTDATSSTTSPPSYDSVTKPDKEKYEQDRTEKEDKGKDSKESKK
In short: as §1

T1 sequence (Q14524 whole entry): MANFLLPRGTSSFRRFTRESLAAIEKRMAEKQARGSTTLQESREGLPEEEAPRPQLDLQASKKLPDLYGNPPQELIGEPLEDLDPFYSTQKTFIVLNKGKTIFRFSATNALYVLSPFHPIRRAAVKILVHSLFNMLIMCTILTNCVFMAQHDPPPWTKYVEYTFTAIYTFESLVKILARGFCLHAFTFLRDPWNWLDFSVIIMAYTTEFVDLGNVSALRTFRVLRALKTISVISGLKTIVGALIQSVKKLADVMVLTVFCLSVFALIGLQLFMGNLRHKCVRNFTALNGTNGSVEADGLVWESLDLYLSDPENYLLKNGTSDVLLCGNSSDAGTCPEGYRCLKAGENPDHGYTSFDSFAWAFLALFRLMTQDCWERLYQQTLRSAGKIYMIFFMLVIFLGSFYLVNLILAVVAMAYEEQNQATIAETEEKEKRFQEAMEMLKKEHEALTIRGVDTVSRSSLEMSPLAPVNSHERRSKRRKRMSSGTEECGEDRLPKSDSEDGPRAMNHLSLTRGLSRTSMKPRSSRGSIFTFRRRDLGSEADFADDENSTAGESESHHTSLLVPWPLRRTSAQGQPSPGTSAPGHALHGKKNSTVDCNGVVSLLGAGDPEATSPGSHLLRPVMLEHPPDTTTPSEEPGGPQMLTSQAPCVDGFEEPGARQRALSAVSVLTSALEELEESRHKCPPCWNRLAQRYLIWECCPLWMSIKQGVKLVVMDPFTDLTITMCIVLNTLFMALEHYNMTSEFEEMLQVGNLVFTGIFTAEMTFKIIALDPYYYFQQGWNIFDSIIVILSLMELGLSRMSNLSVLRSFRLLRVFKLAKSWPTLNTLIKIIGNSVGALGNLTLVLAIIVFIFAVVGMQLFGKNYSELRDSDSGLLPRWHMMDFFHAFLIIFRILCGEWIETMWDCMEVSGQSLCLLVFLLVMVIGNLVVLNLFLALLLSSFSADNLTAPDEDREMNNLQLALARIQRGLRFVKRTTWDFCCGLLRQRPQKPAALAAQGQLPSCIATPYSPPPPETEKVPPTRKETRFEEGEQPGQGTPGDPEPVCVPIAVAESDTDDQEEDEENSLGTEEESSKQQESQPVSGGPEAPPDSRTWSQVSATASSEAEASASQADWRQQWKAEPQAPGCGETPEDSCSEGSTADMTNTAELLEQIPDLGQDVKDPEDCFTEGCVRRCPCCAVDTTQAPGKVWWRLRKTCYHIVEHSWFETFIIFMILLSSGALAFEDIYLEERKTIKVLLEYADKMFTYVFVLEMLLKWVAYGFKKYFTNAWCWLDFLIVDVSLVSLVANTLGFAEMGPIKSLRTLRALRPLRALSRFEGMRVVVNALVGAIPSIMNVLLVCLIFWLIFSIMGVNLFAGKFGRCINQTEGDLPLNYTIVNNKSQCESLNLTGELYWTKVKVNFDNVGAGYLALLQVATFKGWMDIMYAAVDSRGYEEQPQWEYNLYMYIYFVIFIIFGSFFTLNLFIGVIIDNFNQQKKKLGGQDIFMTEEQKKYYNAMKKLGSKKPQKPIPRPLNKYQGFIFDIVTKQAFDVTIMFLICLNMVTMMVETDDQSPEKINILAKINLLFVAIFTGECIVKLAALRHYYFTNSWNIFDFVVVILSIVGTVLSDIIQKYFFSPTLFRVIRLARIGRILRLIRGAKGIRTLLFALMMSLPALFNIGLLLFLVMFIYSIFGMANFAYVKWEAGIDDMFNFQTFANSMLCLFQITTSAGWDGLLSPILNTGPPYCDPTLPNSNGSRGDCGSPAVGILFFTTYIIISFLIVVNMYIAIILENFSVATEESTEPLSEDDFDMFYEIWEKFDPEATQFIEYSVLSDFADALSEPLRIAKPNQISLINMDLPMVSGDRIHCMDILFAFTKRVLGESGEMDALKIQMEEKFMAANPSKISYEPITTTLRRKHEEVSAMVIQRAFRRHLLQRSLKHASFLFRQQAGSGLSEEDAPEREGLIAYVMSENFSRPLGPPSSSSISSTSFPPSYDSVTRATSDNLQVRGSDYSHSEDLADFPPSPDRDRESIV

| SMILES | ratio of Nav 1.5:Nav 1.7 potency, determined by PatchXpress measurement [1] | IC50 [2] [nM] |
| --- | --- | --- |
| O=c1oc2cc(S(=O)(=O)Nc3nccs3)c(F)cc2n1C1CCCc2cccnc21 (stereo not shown) [Compound 43-4, 5-fluoro-2-oxo-3-(5,6,7,8-tetrahydroquinolin-8-yl)-N-1,3-thiazol-2-yl-2,3-dihydro-1,3-benzoxazole-6-sulfonamide] | 71 | 424 |
| O=c1oc2cc(S(=O)(=O)Nc3nccs3)c(F)cc2n1C1CCCc2ccc(Cl)nc21 (stereo not shown) [Compound 43-5, 3-(2-chloro-5,6,7,8-tetrahydroquinolin-8-yl)-5-fluoro-2-oxo-N-1,3-thiazol-2-yl-2,3-dihydro-1,3-benzoxazole-6-sulfonamide] | 202 | 416 |
| O=c1oc2cc(S(=O)(=O)Nc3nccs3)c(F)cc2n1Cc1cccc(Br)c1 [Compound 43-6, 3-(3-bromobenzyl)-5-fluoro-2-oxo-N-1,3-thiazol-2-yl-2,3-dihydro-1,3-benzoxazole-6-sulfonamide] | 80 | 162 |
| Cc1ccc2c(c1)C(n1c(=O)oc3cc(S(=O)(=O)Nc4nccs4)c(F)cc31)CCC2 (stereo not shown) [Compound 43-7, 5-fluoro-3-(7-methyl-1,2,3,4-tetrahydronaphthalen-1-yl)-2-oxo-N-1,3-thiazol-2-yl-2,3-dihydro-1,3-benzoxazole-6-sulfonamide] | 137 | 111 |
| O=c1oc2cc(S(=O)(=O)Nc3nccs3)c(F)cc2n1C1CCCc2c(F)cccc21 (stereo not shown) [Compound 43-8, 5-fluoro-3-(5-fluoro-1,2,3,4-tetrahydronaphthalen-1-yl)-2-oxo-N-1,3-thiazol-2-yl-2,3-dihydro-1,3-benzoxazole-6-sulfonamide] | 75 | 71 |
| O=c1oc2cc(S(=O)(=O)Nc3nccs3)c(F)cc2n1C1CCCc2c(F)cc(F)cc21 (stereo not shown) [Compound 43-9, 3-(5,7-difluoro-1,2,3,4-tetrahydronaphthalen-1-yl)-5-fluoro-2-oxo-N-1,3-thiazol-2-yl-2,3-dihydro-1,3-benzoxazole-6-sulfonamide] | 95 | 67 |
| O=c1oc2cc(S(=O)(=O)Nc3nccs3)c(F)cc2n1C1CC2(CCC2)Oc2ccc(Br)cc21 (stereo not shown) [Compound 43-10, 3-(6-bromo-3,4-dihydrospiro[chromene-2,1′-cyclobutan]-4-yl)-5-fluoro-2-oxo-N-1,3-thiazol-2-yl-2,3-dihydro-1,3-benzoxazole-6-sulfonamide] | 29 | 58 |
| O=c1oc2cc(S(=O)(=O)Nc3nccs3)c(F)cc2n1C1CC2(CCC2)Oc2ccc(F)cc21 (stereo not shown) [Compound 43-11, 5-fluoro-3-(6-fluoro-3,4-dihydrospiro[chromene-2,1′-cyclobutan]-4-yl)-2-oxo-N-1,3-thiazol-2-yl-2,3-dihydro-1,3-benzoxazole-6-sulfonamide] | 196 | 41 |
| O=c1oc2cc(S(=O)(=O)Nc3nccs3)c(F)cc2n1C1CCCc2ccc(F)cc21 (stereo not shown) [Compound 43-12, 5-fluoro-3-(7-fluoro-1,2,3,4-tetrahydronaphthalen-1-yl)-2-oxo-N-1,3-thiazol-2-yl-2,3-dihydro-1,3-benzoxazole-6-sulfonamide] | 145 | 30 |
| Nc1cccc2c1CCCC2n1c(=O)oc2cc(S(=O)(=O)Nc3nccs3)c(F)cc21 (stereo not shown) [Compound 43-13, 3-(5-amino-1,2,3,4-tetrahydronaphthalen-1-yl)-5-fluoro-2-oxo-N-1,3-thiazol-2-yl-2,3-dihydro-1,3-benzoxazole-6-sulfonamide] | 74 | 405 |
| Nc1ccc2c(c1)C(n1c(=O)oc3cc(S(=O)(=O)Nc4nccs4)c(F)cc31)CCC2 (stereo not shown) [Compound 43-14, 3-(7-amino-1,2,3,4-tetrahydronaphthalen-1-yl)-5-fluoro-2-oxo-N-1,3-thiazol-2-yl-2,3-dihydro-1,3-benzoxazole-6-sulfonamide] | 724 | 140 |
| C[C@H](c1cccc2c1CNCC2)n1c(=O)oc2cc(S(=O)(=O)Nc3nccs3)c(F)cc21 [Compound 43-15, 5-fluoro-2-oxo-3-[(1R)-1-(1,2,3,4-tetrahydroisoquinolin-8-yl)ethyl]-N-1,3-thiazol-2-yl-2,3-dihydro-1,3-benzoxazole-6-sulfonamide] | 147 | 80 |
| Nc1ccc2c(c1)C(n1c(=O)oc3cc(S(=O)(=O)Nc4nccs4)c(F)cc31)CCC2 (stereo not shown) [Compound 43-16, 3-(7-amino-1,2,3,4-tetrahydronaphthalen-1-yl)-5-fluoro-2-oxo-N-1,3-thiazol-2-yl-2,3-dihydro-1,3-benzoxazole-6-sulfonamide] | 329 | 211 |
| C[C@@H](c1cccc2cncn12)n1c(=O)oc2cc(S(=O)(=O)Nc3nccs3)c(F)cc21 [Compound 43-17, 5-fluoro-3-[(1S)-1-imidazo[1,5-a]pyridin-5-ylethyl]-2-oxo-N-1,3-thiazol-2-yl-2,3-dihydro-1,3-benzoxazole-6-sulfonamide] | 48 | 621 |
| C[C@H](c1cccc2cncn12)n1c(=O)oc2cc(S(=O)(=O)Nc3nccs3)c(F)cc21 [Compound 43-18, 5-fluoro-3-[(1R)-1-imidazo[1,5-a]pyridin-5-ylethyl]-2-oxo-N-1,3-thiazol-2-yl-2,3-dihydro-1,3-benzoxazole-6-sulfonamide] | 139 | 215 |
| C[C@H](c1ccccc1C#CCN)n1c(=O)oc2cc(S(=O)(=O)Nc3nccs3)c(F)cc21 [Compound 43-19, 3-{(1R)-1-[2-(3-aminoprop-1-yn-1-yl)phenyl]ethyl}-5-fluoro-2-oxo-N-1,3-thiazol-2-yl-2,3-dihydro-1,3-benzoxazole-6-sulfonamide] | 1267 | 29 |
| C[C@@H](c1ccccc1C1CNC1)n1c(=O)oc2cc(S(=O)(=O)Nc3nccs3)c(F)cc21 [Compound 43-20, 3-[(1S)-1-(2-azetidin-3-ylphenyl)ethyl]-5-fluoro-2-oxo-N-1,3-thiazol-2-yl-2,3-dihydro-1,3-benzoxazole-6-sulfonamide] | 48 | 621 |
| C[C@H](c1ccccc1C1CNC1)n1c(=O)oc2cc(S(=O)(=O)Nc3nccs3)c(F)cc21 [Compound 43-21, 3-[(1R)-1-(2-azetidin-3-ylphenyl)ethyl]-5-fluoro-2-oxo-N-1,3-thiazol-2-yl-2,3-dihydro-1,3-benzoxazole-6-sulfonamide] | 1164 | 18 |
| C[C@H](c1ccccc1C1(O)CNC1)n1c(=O)oc2cc(S(=O)(=O)Nc3nccs3)c(F)cc21 [Compound 43-22, 5-fluoro-3-{(1R)-1-[2-(3-hydroxyazetidin-3-yl)phenyl]ethyl}-2-oxo-N-1,3-thiazol-2-yl-2,3-dihydro-1,3-benzoxazole-6-sulfonamide] | 703 | 61 |
| C[C@H](c1ccccc1C1(F)CNC1)n1c(=O)oc2cc(S(=O)(=O)Nc3nccs3)c(F)cc21 [Compound 43-23, 5-fluoro-3-{(1R)-1-[2-(3-fluoroazetidin-3-yl)phenyl]ethyl}-2-oxo-N-1,3-thiazol-2-yl-2,3-dihydro-1,3-benzoxazole-6-sulfonamide] | 5541 | 4 |
| Cc1n[nH]cc1-c1cccc([C@@H](C)n2c(=O)oc3cc(S(=O)(=O)Nc4nccs4)c(F)cc32)c1 [Compound 43-24, 5-fluoro-3-{(1R)-1-[3-(3-methyl-1H-pyrazol-4-yl)phenyl]ethyl}-2-oxo-N-1,3-thiazol-2-yl-2,3-dihydro-l,3-benzoxazole-6-sulfonamide] | 33 | 103 |
| C[C@H](c1cccc(-c2ccn(C)n2)c1)n1c(=O)oc2cc(S(=O)(=O)Nc3nccs3)c(F)cc21 [Compound 43-25, 5-fluoro-3-{(1R)-1-[3-(1-methyl-1H-pyrazol-3-yl)phenyl]ethyl}-2-oxo-N-1,3-thiazol-2-yl-2,3-dihydro-1,3-benzoxazole-6-sulfonamide] | 86 | 306 |
| Cl.O=c1oc2cc(S(=O)(=O)Nc3nccs3)c(F)cc2n1Cc1cccc2c1CNCC2(F)F [Compound 44-5, 3-((4,4-Difluoro-1,2,3,4-tetrahydroisoquinolin-8-yl)methyl)-5-fluoro-2-oxo-N-(thiazol-2-yl)-2,3-dihydrobenzo[d]oxazole-6-sulfonamide hydrochloride] | 151 | 181 |
